Source: patent US9051279B2, “Substituted isoquinolinones and quinazolinones” (Novartis AG, priority 2009, dated 2015)

Assay: Solubility and stability of crystalline sulphate salt form I compared to free base amorphous form
Type: physicochemical
Settings: compared to the free base amorphous form

COc1cc2c(cc1OC(C)C)[C@H](c1ccc(Cl)cc1)N(c1ccc(N(C)C[C@H]3CC[C@H](N4CCN(C)C(=O)C4)CC3)cc1)C(=O)C2.O=S(=O)(O)O [(S)-1-(4-Chloro-phenyl)-7-isopropoxy-6-methoxy-2-(4-{methyl-[4-(4-methyl-3-oxo-piperazin-1-yl)-trans-cyclohexylmethyl]-amino}-phenyl)-1,4-dihydro-2H-isoquinolin-3-one sulphate salt]
solubility: improvements | stability: improvements
